{
  "source": "paper PMC8546428",
  "about": "“Convergent olfactory trace amine-associated receptors detect biogenic polyamines with distinct motifs via a conserved binding site” (The Journal of Biological Chemistry, 2021)",
  "key": {"sTAAR365 Y6.51F": {"molecular_target": "T1, sTAAR365 Y6.51F (Petromyzon marinus, UniProt A0A678XMK4, Y272F)", "T1 sequence (A0A678XMK4 1-365 Y272F)": "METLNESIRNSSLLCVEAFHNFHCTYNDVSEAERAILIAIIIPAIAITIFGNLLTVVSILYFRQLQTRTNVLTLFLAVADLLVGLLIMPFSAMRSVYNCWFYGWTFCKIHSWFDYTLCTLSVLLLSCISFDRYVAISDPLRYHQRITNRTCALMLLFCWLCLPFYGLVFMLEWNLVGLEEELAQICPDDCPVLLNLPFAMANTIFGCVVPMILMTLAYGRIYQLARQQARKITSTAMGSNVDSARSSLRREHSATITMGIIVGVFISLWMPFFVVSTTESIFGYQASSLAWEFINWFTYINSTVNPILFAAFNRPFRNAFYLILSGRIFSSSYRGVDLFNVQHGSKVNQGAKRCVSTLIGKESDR", "test": "cell-based"}, "WT sTAAR365": {"molecular_target": "T2, WT sTAAR365 (Petromyzon marinus, UniProt A0A678XMK4)", "T2 sequence (A0A678XMK4 1-365)": "T1 sequence (A0A678XMK4 1-365 Y272F) with F272Y", "test": "cAMP TR-FRET assay, wild-type sTAAR365 in HEK293T", "type": "cell-based, sea lamprey", "settings": "for activation of sTAAR365 (cAMP accumulation): ligand 1 mM, HEK293T, Fig. 2A", "procedure": "HEK293T cells were transfected with sea lamprey sTAAR365 for 24 h and assayed for Golf-mediated cAMP production with a TR-FRET assay at 30 min after ligand addition. Receptor activity was normalized to the cAMP level in buffer-treated cells (mean ± S.D., n = 3). A, HEK293T cells expressing sTAAR365 or mock plasmid were incubated with either vehicle or tested ligands (1 mM). […] B, concentration-dependent cAMP production of HEK293T cells expressing sTAAR365 stimulated with cadaverine, putrescine, and spermine."}, "Rat TAAR9": {"molecular_target": "T3, Rat TAAR9 (Rattus norvegicus, UniProt Q923Y6)", "T3 construct": "expressed in transfected cells; host or cells: Hana3A (HEK293-derived)", "T3 sequence (Q923Y6 1-338)": "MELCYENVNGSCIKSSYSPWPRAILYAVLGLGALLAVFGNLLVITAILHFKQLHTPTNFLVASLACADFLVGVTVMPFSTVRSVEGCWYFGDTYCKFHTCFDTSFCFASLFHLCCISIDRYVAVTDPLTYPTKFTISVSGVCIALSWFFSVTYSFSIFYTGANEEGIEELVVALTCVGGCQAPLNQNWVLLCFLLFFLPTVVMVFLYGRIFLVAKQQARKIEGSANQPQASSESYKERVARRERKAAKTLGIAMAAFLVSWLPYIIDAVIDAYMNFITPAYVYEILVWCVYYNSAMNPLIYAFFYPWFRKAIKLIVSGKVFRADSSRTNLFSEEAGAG", "test": "CRE-luciferase reporter assay in Hana3A", "type": "cell-based", "settings": "rat TAAR9, ligand 1 mM, Fig. 1B", "procedure": "We examined the response of TAAR9s from rat, human, hamster, and rabbit to the stimulation of 1 mM amines using a well-established cAMP response element (CRE)-driven luciferase reporter assay based on Golf-mediated cAMP signal transduction ([5], [24]). In addition to the four mTAAR9 ligands, we included putrescine, which is also a polyamine and precursor of spermine/spermidine biosynthesis.\nMammalian TAAR9 plasmids were transfected into Hana3A cells along with a cAMP-dependent luciferase reporter plasmid (CRE-Luc). Transfected cells were incubated with tested ligands, and luciferase activity was quantified with a […] substrate as a reporter for Golf-mediated TAAR activation. Luciferase activity was indicated by the luminescence value and normalized as a fold-increase over the response to the vehicle stimuli (mean ± S.D., n = 3). […] B, Hana3A cells expressing mouse, rat, human, cat, hamster, and rabbit TAAR9 were incubated with either vehicle or tested ligands (1 mM) and assayed for reporter activity. C, concentration-dependent luciferase activity in Hana3A cells expressing mouse, rat, and cat TAAR9 receptors stimulated with cadaverine, spermidine, and spermine.\nThe firefly luciferase and renilla luciferase activity was measured with a BioTek microplate reader following manufacturer’s instructions."}, "sTAAR365 E7.36A": {"molecular_target": "T4, sTAAR365 E7.36A (Petromyzon marinus, UniProt A0A678XMK4, E292A)", "T4 sequence (A0A678XMK4 1-365 E292A)": "T1 sequence (A0A678XMK4 1-365 Y272F) with F272Y, E292A", "test": "cell-based"}, "sTAAR365 W7.40Y": {"molecular_target": "T5, sTAAR365 W7.40Y (Petromyzon marinus, UniProt A0A678XMK4, W296Y)", "T5 sequence (A0A678XMK4 1-365 W296Y)": "T1 sequence (A0A678XMK4 1-365 Y272F) with F272Y, W296Y", "test": "cell-based"}},
  "note": "Positions count from the first letter of the chain named.",
  "data": [
    {"smiles": "NCCCCCN", "note": "[cadaverine]", "values": [
      {"measurement": "EC50", "setting": "sTAAR365 Y6.51F", "value": "1.7 ± 0.9", "unit": "µM"},
      {"measurement": "EC50", "setting": "WT sTAAR365", "value": 0.004, "unit": "µM"},
      {"measurement": "difference in potency, cadaverine vs putrescine", "setting": "WT sTAAR365; WT sTAAR365", "value": 1000, "unit": "fold"},
      {"measurement": "response threshold", "setting": "WT sTAAR365; WT sTAAR365, cAMP production", "value": "~100", "unit": "pM"},
      {"measurement": "activation of sTAAR365 (cAMP accumulation)", "setting": "WT sTAAR365", "value": "activated"},
      {"measurement": "reporter activity (activation of TAAR9)", "setting": "Rat TAAR9", "value": "maximum responses"},
      {"measurement": "EC50", "setting": "sTAAR365 E7.36A", "value": "0.05 ± 0.02", "unit": "µM"},
      {"measurement": "EC50", "setting": "sTAAR365 W7.40Y", "value": "0.127 ± 0.041", "unit": "µM"}
    ]},
    {"smiles": "NCCCCN", "note": "[putrescine]", "values": [
      {"measurement": "EC50", "setting": "sTAAR365 Y6.51F", "value": "> 500", "unit": "µM"},
      {"measurement": "EC50", "setting": "WT sTAAR365", "value": 56, "unit": "µM"},
      {"measurement": "activation of sTAAR365 (cAMP accumulation)", "setting": "WT sTAAR365", "value": "activated"},
      {"measurement": "reporter activity (activation of TAAR9)", "setting": "Rat TAAR9", "value": "not activated"},
      {"measurement": "EC50", "setting": "sTAAR365 E7.36A", "value": "420 ± 87", "unit": "µM"},
      {"measurement": "EC50", "setting": "sTAAR365 W7.40Y", "value": "> 500", "unit": "µM"}
    ]},
    {"smiles": "NCCCNCCCCNCCCN", "note": "[spermine]", "values": [
      {"measurement": "EC50", "setting": "sTAAR365 Y6.51F", "value": "114 ± 20", "unit": "µM"},
      {"measurement": "EC50", "setting": "WT sTAAR365", "value": 28, "unit": "µM"},
      {"measurement": "maximal response (Emax) relative to cadaverine/putrescine", "setting": "WT sTAAR365; WT sTAAR365, cAMP production", "value": "one-third"},
      {"measurement": "activation of sTAAR365 (cAMP accumulation)", "setting": "WT sTAAR365", "value": "activated"},
      {"measurement": "reporter activity (activation of TAAR9)", "setting": "Rat TAAR9", "value": "maximum responses"},
      {"measurement": "EC50", "setting": "sTAAR365 E7.36A", "value": "> 500", "unit": "µM"},
      {"measurement": "EC50", "setting": "sTAAR365 W7.40Y", "value": "530 ± 259", "unit": "µM"}
    ]}
  ]
}
